Assay results reported in paper PMC5353720 (2017).

System: PSA-aptamer (DNA, aptamer) TTTTTAATTAAAGCTCGCCATCAAATAGCTTT
Experiment: extended-gate field-effect transistor (AptaFET)
Details: PBS, 1 mM MgCl2 (incubation); PBS (readout); 500 nM highest tested; shift 2.7 ± 0.3 mV against 22.3 mV on TFV-aptamer; immobilised aptamer

binding: no
Structure (SMILES): C[C@H](Cn1cnc2c(N)ncnc21)OCP(=O)(O)O
